{
  "source": "patent US10844349B2",
  "about": "(Albumedix Ltd., priority 2011, dated 2020)",
  "key": {"[1]": {"assay": "Microtitre plate insoluble aggregate test: time for A350 to increase by 0.2 AU at 65° C.", "type": "physicochemical", "conditions": "cation chlorides 50-500 mM, albumin 10 mg/mL, pH 6.43, 65° C.", "protocol": "The microtitre plate was gently rocked to mix the contents of each well, centrifuged to remove any air bubbles and placed in a Biotek Synergy Mx (Potton, UK) plate reader that had been pre-equilibrated and controlled at 65° C. The plate was then read at 350 nm every minute over a total incubation time of 8 hours. Gen5 software (Biotek software for the plate reader version 2.00.18) was used to calculate the time taken for the A350 nm absorbance to increase by 0.2 adsorption units above a base line. The base line was calculated from the mean of the first 5 data points."}, "[2]": {"tested_on": "Human embryonic stem cells (cell lines SAl21 and SA181)", "assay": "Effect of octanoate on stem cell culture (attachment, growth, undifferentiated state over 5 passages; text summary for both cell lines)", "type": "cell-based", "conditions": "8 mM octanoate in 100 g/L albumin", "protocol": "The effect of octanoate on stem cell culture was carried out by a contract research organization: Cellartis AB (Gothenburg, Sweden). […] The cell growth over the 5 passages was assessed by monitoring the cell doubling times during consecutive passages in cell production. The doubling times of cultures should be within a range of 28-40 hours, and can be seen as a trend indicator."}},
  "data": [
    {"molecule": "[Cl-].[Cl-].[Mg+2]", "note": "[MgCl2]", "values": [
      {"measurement": "albumin stability (time for A350 to increase by 0.2 AU)", "setting": "[1]", "result": "very good"}
    ]},
    {"molecule": "CCCCCCCC(=O)O", "note": "[octanoate]", "values": [
      {"measurement": "toxicity to stem cells", "setting": "[2]", "result": "toxic to stem cells"}
    ]}
  ]
}
